Laboratory results: patent US20140121216A1, “INDOLEAMINE DERIVATIVES FOR THE TREATMENT OF CENTRAL NERVOUS SYSTEM DISEASES” (Adamed Sp. z o.o., priority 2011, published 2014)

Columns and labels:
[1] = molecular target: T1, 5-HT2C receptor, human recombinant (HEK-293 cells) (Homo sapiens, UniProt P28335); assay: Binding assay, 5-HT2C receptor ([3H]mesulergine); conditions: for 5-HT2C [%] binding assay result: compound 1×10^−6 M
T1 construct: expressed in transfected cells; host or cells: HEK-293 cells
T1 sequence (P28335 33-458): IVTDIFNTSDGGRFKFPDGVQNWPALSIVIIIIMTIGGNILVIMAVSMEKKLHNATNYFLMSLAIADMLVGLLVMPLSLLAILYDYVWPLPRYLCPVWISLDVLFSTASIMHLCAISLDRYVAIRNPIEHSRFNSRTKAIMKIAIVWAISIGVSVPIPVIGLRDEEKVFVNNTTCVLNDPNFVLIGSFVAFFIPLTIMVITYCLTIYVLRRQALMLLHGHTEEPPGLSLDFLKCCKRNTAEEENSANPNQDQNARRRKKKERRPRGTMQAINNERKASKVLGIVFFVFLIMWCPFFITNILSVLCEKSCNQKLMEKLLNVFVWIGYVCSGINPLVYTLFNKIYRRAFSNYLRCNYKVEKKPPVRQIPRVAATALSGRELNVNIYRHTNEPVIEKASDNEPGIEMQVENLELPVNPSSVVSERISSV
Protocol: (§1) Moreover, ability of the compounds of the invention to block potassium channel hERG was tested.
(§2) The specific ligand binding to the receptors is defined as the difference between the total binding and the non-specific binding determined in the presence of an excess of unlabelled ligand.
(§3) The inhibition constants (Ki) were calculated using the Cheng Prusoff equation (Ki=IC50/(1+(L/KD)), where L=concentration of radioligand in the assay, and KD=affinity of the radioligand for the receptor). A Scatchard plot is used to determine the Kd. The IC50 values (concentration causing a half-maximal inhibition of control specific binding) and Hill coefficients (nH) were determined by non-linear regression analysis of the competition curves generated with mean replicate values using Hill equation curve fitting (Y=D+[(A−D)/(1+(C/C50)^nH)], where Y=specific binding, D=minimum specific binding, A=maximum specific binding, C=compound concentration, C50=IC50, and nH=slope factor).

[2] = molecular target: T2, α2C adrenergic receptors, human recombinant (CHO cells) (Homo sapiens, UniProt P18825); assay: Binding assay, α2C adrenergic receptor ([3H]RX 821002); conditions: for α2C [%] affinity test result: compound 1×10^−6 M; for Ki: read-out: Inhibition constant Ki α2C
T2 construct: expressed in transfected cells; host or cells: CHO cells
T2 sequence (P18825 1-462): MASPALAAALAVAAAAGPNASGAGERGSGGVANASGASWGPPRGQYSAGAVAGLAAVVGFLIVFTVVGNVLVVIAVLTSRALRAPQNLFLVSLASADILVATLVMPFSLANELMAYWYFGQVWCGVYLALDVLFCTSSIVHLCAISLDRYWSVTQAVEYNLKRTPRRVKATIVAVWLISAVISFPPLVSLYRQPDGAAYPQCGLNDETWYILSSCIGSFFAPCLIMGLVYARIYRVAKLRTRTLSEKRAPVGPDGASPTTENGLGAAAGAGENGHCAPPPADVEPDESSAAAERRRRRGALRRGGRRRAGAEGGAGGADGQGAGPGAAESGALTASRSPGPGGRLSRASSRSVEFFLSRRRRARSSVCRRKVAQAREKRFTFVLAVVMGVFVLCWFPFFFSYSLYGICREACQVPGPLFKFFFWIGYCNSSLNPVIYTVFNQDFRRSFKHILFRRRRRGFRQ
Protocol: as §1, §2
as §3, with “factor). This analysis was performed using a software developed at Cerep (Hill software) and validated by comparison with data generated by the commercial software SigmaPlot® 4.0 for Windows® (©1997 by SPSS Inc.).” for “factor).”
Experimental conditions for tests are given in Table 7, and results of tests for representative compounds are given in Tables 8a and 8b (α1 receptors) and in Tables 9a and 9b (α2C receptors).

[3] = molecular target: T3, D2S (h), human recombinant (HEK-293 cells) (Homo sapiens, UniProt P14416); assay: Cellular functional assay D2S (h) agonism; format: cell-based; conditions: HEK293; compound 1×10^−6 M; control 3 μM dopamine; read-out: D2-ag [%]
T3 construct: expressed in transfected cells; host or cells: HEK-293 cells
T3 sequence (P14416 1-414 isoform P14416-2): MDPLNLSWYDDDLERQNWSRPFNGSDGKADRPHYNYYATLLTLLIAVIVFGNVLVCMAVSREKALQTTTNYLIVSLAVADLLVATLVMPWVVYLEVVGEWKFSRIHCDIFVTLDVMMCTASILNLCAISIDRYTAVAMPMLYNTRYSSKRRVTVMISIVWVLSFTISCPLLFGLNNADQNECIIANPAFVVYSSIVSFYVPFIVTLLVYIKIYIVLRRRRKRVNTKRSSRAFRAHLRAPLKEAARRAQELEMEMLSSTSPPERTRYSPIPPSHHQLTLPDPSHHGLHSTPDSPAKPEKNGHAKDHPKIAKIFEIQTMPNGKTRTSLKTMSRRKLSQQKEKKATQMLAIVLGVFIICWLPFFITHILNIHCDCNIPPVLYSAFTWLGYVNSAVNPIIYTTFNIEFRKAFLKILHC
Protocol: (§4) The results are expressed as a percent of control specific agonist response ((measured specific response/control specific agonist response)×100) obtained in the presence of tested compound.
(§5) The EC50 values (concentration producing a half-maximal specific response) and IC50 values (concentration causing a half-maximal inhibition of the control specific agonist response) were determined by non-linear regression analysis of the concentration-response curves generated with mean replicate values using Hill equation curve fitting (Y=D+[(A−D)/(1+(C/C50)nH)], where Y=specific response, D=minimum specific response, A=maximum specific response, C=compound concentration, and C50=EC50 or IC50, and nH=slope factor).
(§6) For the antagonists, the apparent dissociation constants (Kb) were calculated using the modified Cheng Prusoff equation (Kb=IC50/(1+(A/EC50A)), where A=concentration of reference agonist in the assay, and EC50A=EC50 value of the reference agonist).

[4] = molecular target: T4, D3 (h), human recombinant (CHO cells) (Homo sapiens, UniProt P35462); assay: Cellular functional assay D3 (h) antagonism; format: cell-based; conditions: compound 1×10^−6 M; stimulus dopamine 10 nM
T4 construct: expressed in transfected cells; host or cells: CHO cells
T4 sequence (P35462 whole entry): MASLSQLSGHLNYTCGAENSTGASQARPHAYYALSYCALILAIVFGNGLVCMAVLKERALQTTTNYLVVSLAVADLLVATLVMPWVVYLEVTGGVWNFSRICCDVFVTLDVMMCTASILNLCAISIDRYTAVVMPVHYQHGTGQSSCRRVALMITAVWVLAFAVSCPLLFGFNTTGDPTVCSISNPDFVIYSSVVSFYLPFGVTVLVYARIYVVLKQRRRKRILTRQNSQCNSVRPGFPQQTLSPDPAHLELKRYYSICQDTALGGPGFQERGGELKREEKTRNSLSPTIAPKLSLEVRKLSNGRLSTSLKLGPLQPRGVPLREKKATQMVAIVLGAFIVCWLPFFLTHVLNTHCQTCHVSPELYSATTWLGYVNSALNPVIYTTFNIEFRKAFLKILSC
Protocol: as §4, §5, §6

[5] = molecular target: T5, 5-HT1A (h), human recombinant (CHO cells) (Homo sapiens, UniProt P08908); assay: Cellular functional assay 5-HT1A (h) agonism; format: cell-based; conditions: compound 1×10^−6 M; control 100 nM 8-OHDPAT
T5 construct: expressed in transfected cells; host or cells: CHO cells
T5 sequence (P08908 1-422): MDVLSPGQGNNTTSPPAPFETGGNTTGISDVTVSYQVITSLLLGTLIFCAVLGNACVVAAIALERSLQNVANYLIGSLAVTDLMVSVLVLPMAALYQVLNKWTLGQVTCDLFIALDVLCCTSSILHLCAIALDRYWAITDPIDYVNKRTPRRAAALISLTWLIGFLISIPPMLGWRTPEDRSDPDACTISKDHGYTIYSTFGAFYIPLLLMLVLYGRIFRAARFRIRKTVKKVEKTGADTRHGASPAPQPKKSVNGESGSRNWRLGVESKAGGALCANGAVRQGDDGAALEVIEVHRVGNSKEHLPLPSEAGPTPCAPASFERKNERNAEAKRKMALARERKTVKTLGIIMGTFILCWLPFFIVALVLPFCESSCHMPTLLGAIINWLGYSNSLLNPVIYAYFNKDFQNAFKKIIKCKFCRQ
Protocol: as §4, §5, §6

[6] = molecular target: T6, 5-HT2A (h), human recombinant (HEK-293 cells) (Homo sapiens, UniProt P28223); assay: Cellular functional assay 5-HT2A (h) antagonism; format: cell-based; conditions: compound 1×10^−6 M; stimulus serotonin 100 nM
T6 construct: expressed in transfected cells; host or cells: HEK-293 cells
T6 sequence (P28223 whole entry): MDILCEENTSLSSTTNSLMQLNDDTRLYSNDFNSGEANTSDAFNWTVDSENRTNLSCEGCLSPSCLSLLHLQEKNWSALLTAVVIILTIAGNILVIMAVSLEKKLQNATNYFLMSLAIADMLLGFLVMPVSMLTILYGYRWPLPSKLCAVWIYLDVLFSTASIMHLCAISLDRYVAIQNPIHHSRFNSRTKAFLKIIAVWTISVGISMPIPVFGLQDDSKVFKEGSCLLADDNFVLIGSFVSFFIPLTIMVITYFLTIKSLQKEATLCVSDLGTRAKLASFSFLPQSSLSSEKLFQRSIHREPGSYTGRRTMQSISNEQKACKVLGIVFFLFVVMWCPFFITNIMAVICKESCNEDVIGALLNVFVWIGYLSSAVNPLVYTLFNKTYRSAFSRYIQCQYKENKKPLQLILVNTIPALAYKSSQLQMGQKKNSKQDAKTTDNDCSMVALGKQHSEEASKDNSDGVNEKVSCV
Protocol: as §4, §5, §6

Question: With `NC(=O)c1ccccc1OCCCN1CCN(c2cccc3c2ccn3S(=O)(=O)c2ccccc2)CC1` [Compound 72, 2-[3-[4-[1-(Benzenesulfonyl)indol-4-yl]piperazin-1-yl]propoxy]-benzamide] as the compound, how does the “5-HT2C [%] binding assay result” value [1] read?
Answer: 35%

Question: And the “α2C [%] affinity test result” value [2]?
Answer: 74%

Question: What about the activation at 1 µM [3] of the same compound?
Answer: 34%

Question: What about the “D3-antag [%]” value [4] of the same compound?
Answer: 74%

Question: What about the “5-HT1A-ag [%]” value [5] of the same compound?
Answer: 16%

Question: And the “5-HT2A-antag [%]” value [6]?
Answer: 45%

Question: Which “5-HT2C [%] binding assay result” value [1] does the source give for `O=C1CCc2ccc(OCCCCN3CCN(c4cccc5c4ccn5Cc4cccc(F)c4)CC3)cc2N1` [Compound 63, 7-[4-[4-[1-[(3-Fluorophenyl)methyl]indol-4-yl]piperazin-1-yl]butoxy]-3,4-dihydro-1H-quinolin-2-one] here?
Answer: 89%

Question: And the “α2C [%] affinity test result” value [2]?
Answer: 100%

Question: And the activation at 1 µM [3]?
Answer: 47%

Question: And the “D3-antag [%]” value [4]?
Answer: 72%

Question: What about the “5-HT1A-ag [%]” value [5] of the same compound?
Answer: 26%

Question: And the “5-HT2A-antag [%]” value [6]?
Answer: 63%

Question: How did the “5-HT2C [%] binding assay result” value [1] turn out when `O=C1CCc2ccc(OCCCCN3CCN(c4cccc5c4ccn5Cc4cccc(Cl)c4)CC3)cc2N1` [Compound 67, 7-[4-[4-[1-[(3-Chlorophenyl)methyl]indol-4-yl]piperazin-1-yl]butoxy]-3,4-dihydro-1H-quinolin-2-one] was run?
Answer: 76%

Question: What about the “α2C [%] affinity test result” value [2] of the same compound?
Answer: 97%

Question: And the activation at 1 µM [3]?
Answer: 46%

Question: And the “D3-antag [%]” value [4]?
Answer: 74%

Question: And the “5-HT1A-ag [%]” value [5]?
Answer: 23%

Question: What about the “5-HT2A-antag [%]” value [6] of the same compound?
Answer: 34%

Question: Which results are given for `O=C1CCc2ccc(OCCCN3CCN(c4cccc5c4ccn5Cc4ccccc4)CC3)cc2N1` [Compound 4, 7-[3-[4-(1-Benzylindol-4-yl)piperazin-1-yl]propoxy]-3,4-dihydro-1H-quinolin-2-one]?
Answer: 5-HT2C [%] binding assay result [1]: 73%; α2C [%] affinity test result [2]: 93%; activation at 1 µM [3]: 45%; D3-antag [%] [4]: 29%; 5-HT1A-ag [%] [5]: 63%; 5-HT2A-antag [%] [6]: 17%

Question: Which “5-HT2C [%] binding assay result” value [1] does the source give for `O=C1CCc2ccc(OCCCN3CCN(c4cccc5c4ccn5S(=O)(=O)c4ccccc4)CC3)cc2N1` [Compound 23, 7-[3-[4-[1-(Benzensulphonyl)indol-4-yl]piperazin-1-yl]propoxy]-3,4-dihydro-1H-quinolin-2-one] here?
Answer: 0%

Question: What about the “α2C [%] affinity test result” value [2] of the same compound?
Answer: 32%

Question: And the Ki [2]?
Answer: 440 nM

Question: And the activation at 1 µM [3]?
Answer: 40%

Question: What about the “D3-antag [%]” value [4] of the same compound?
Answer: −19%

Question: And the “5-HT1A-ag [%]” value [5]?
Answer: 69%

Question: `O=C1CCc2ccc(OCCCCN3CCN(c4cccc5c4ccn5Cc4ccccc4)CC3)cc2N1` [Compound 5, 7-(4-(4-(1-Benzyl-1H-indol-4-yl)piperazin-1-yl)butoxy)-3,4-dihydroquinolin-2(1H)-one] was tested. Which “5-HT2C [%] binding assay result” value [1] did it give?
Answer: 86%

Question: What about the “α2C [%] affinity test result” value [2] of the same compound?
Answer: 93%

Question: What about the activation at 1 µM [3] of the same compound?
Answer: 47%

Question: What about the “D3-antag [%]” value [4] of the same compound?
Answer: 43%

Question: And the “5-HT1A-ag [%]” value [5]?
Answer: 66%

Question: What about the “5-HT2A-antag [%]” value [6] of the same compound?
Answer: 66%

Question: How did the “5-HT2C [%] binding assay result” value [1] turn out when `O=C1CCc2ccc(OCCCCN3CCN(c4cccc5c4ccn5S(=O)(=O)c4ccccc4)CC3)cc2N1` [Compound 24, 7-(4-(4-(1-(Phenylsulphonyl)-1H-indol-4-yl)piperazin-1-yl)butoxy)-3,4-dihydroquinolin-2(1H)-one] was run?
Answer: 48%

Question: What about the Ki ([1]; read-out: Inhibition constant Ki 5-HT2C) of the same compound?
Answer: 610 nM

Question: What about the “α2C [%] affinity test result” value [2] of the same compound?
Answer: 78%

Question: And the Ki [2]?
Answer: 150 nM

Question: And the activation at 1 µM [3]?
Answer: 47%

Question: What about the “D3-antag [%]” value [4] of the same compound?
Answer: 63.2%

Question: And the “5-HT1A-ag [%]” value [5]?
Answer: 69.7%

Question: And the “5-HT2A-antag [%]” value [6]?
Answer: 34.2%
